From patent US7141562B2, “Substituted benzoxazinones and uses thereof” (Roche Palo Alto LLC, priority 2002, dated 2006) come the findings set out here.

Structures can show the parent of a compound that is named as a salt.

T1 sequence (P50406 whole entry): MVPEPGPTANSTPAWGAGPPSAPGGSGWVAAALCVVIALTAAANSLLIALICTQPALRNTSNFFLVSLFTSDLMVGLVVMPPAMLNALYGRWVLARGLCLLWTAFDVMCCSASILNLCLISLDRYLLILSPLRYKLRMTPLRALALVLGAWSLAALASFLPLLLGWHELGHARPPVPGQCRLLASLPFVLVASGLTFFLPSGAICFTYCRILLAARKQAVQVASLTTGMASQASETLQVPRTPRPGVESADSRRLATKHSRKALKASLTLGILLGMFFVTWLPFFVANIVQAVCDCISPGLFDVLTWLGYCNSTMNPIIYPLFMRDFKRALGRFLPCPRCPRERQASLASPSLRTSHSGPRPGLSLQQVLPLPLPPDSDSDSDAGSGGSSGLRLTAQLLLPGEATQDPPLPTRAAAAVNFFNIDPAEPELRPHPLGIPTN

One data set concerns the target T1, recombinant human 5-HT6 receptor (Homo sapiens, UniProt P50406).
T1 construct: expressed in transfected cells; cell membranes used
The experiment in a line: Radioligand binding: competition for [3H]LSD binding in membranes of HEK293 cells expressing the receptor. The following applies: [3H]LSD (5 nM), HEK293 cell membranes, 60 min at 37° C., pH 7.4, duplicate determinations. Here is the method:
The binding activity of compounds of this invention in vitro was determined as follows. Duplicate determinations of ligand affinity are made by competing for binding of [^3H]LSD in cell membranes derived from HEK293 cells stably expressing recombinant human 5-HT6 receptor.
All determinations were made in assay buffer containing 50 mM Tris-HCl, 10 mM MgSO4, 0.5 mM EDTA, 1 mM ascorbic acid, pH 7.4 at 37° C., in a 250 microliter reaction volume. Assay tubes containing [^3H] LSD (5 nM), competing ligand, and membrane were incubated in a shaking water bath for 60 min. at 37° C., filtered onto Packard GF-B plates (presoaked with 0.3% PEI) using a Packard 96 well cell harvester and washed 3 times in ice cold 50 mM Tris-HCl. Bound [^3H] LSD was determined as radioactive counts per minute using Packard TopCount.
Displacement of [3H]LSD from the binding sites was quantified by fitting concentration-binding data to a 4-parameter logistic equation:
[formula] where Hill is the Hill slope, [ligand] is the concentration of competing radioligand and IC50 is the concentration of radioligand producing half-maximal specific binding of radioligand. The specific binding window is the difference between the Bmax and the basal parameters.
On to `O=C1COc2c(N3CCNCC3)cc(F)cc2N1Cc1ccccc1F` [4-(2-fluoro-benzyl)-6-fluoro-8-piperazin-1-yl-4H-benzo[1,4]oxazin-3-one], for which the inhibitory constant (Ki) was 676 pM. For the compound `O=C1COc2c(N3CCNCC3)cccc2N1Cc1ccccc1F` [4-(2-fluoro-benzyl)-8-piperazin-1-yl-4H-benzo[1,4]oxazin-3-one], the Ki was 912 pM. In the case of `CC1(C)Oc2c(N3CCNCC3)cccc2N(Cc2cccc(Cl)c2)C1=O` [4-(3-Chloro-benzyl)-2,2-dimethyl-8-piperazin-1-yl-4H-benzo[1,4]oxazin-3-one], the inhibition constant (Ki) was 759 pM.

Take `CC1(C)Oc2c(N3CCNCC3)cccc2N(Cc2ccccc2)C1=O` [4-Benzyl-2,2-dimethyl-8-piperazin-1-yl-4H-benzo[1,4]oxazin-3-one]: the Ki was 741 pM.

Take `C[C@@H]1Oc2c(N3CCNCC3)cccc2N(Cc2ccccc2)C1=O` [(S)-4-Benzyl-2-methyl-8-piperazin-1-yl-4H-benzo[1,4]oxazin-3-one]: the Ki was 759 pM.

System in a further data set: not given
Experiment: not given
Conditions: not given
`COc1cc(N2CCNCC2)c2c(c1)N(Cc1cccc(Cl)c1)C(=O)CO2` (as salt: hydrochloride) showed a melting point of 55.2 to 58.8 °C. `O=C1COc2c(N3CCNCC3)cccc2N1Cc1ccccc1` (as salt: hydrochloride) came in with a melting point of 250.9 to 253.8 °C.

For orientation: Ki means a measure of affinity in units of concentration, obtained from inhibition or displacement. The term melting point denotes the temperature of the solid-liquid transition.
